Source: ChEMBL document CHEMBL1201862, “PubChem BioAssay data set” (2004)
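In this assay, cells in 96-well plates receive the compound at five concentrations for 48 hours. Endpoints are linearly interpolated between the surrounding concentrations. At the GI50, growth is halved.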 Active and inactive are the calls of the source. No stated cut-off is given here; in the data, active = GI50 up to about 1.1 µM and inactive = higher.

Tests used:
Experiment in all cases: inhibition of tumour cell growth, NCI panel, 48 h
[1] = tested on: A498
[2] = tested on: CCRF-CEM
[3] = tested on: COLO 205
[4] = tested on: DU-145
[5] = tested on: HCT-15
[6] = tested on: M14
[7] = tested on: MDA-MB-435
[8] = tested on: MDA-N
[9] = tested on: NCI/ADR-RES
[10] = tested on: PC-3
[11] = tested on: SK-MEL-5
[12] = tested on: SNB-75
[13] = tested on: T47D
[14] = tested on: UO-31
[15] = tested on: NCI-H460
[16] = tested on: Malme-3M

Compound: O=S(=O)(O)c1cc(S(=O)(=O)O)c2c(/N=N/c3ccccc3)c(O)ccc2c1
- GI50 [1]: > 100 µM (inactive)
- GI50 [2]: > 100 µM (inactive)
- GI50 [3]: > 100 µM (inactive)
- GI50 [4]: > 100 µM (inactive)
- GI50 [5]: > 100 µM
- GI50 [6]: > 100 µM (inactive)
- GI50 [7]: > 100 µM (inactive)
- GI50 [8]: > 100 µM (inactive)
- GI50 [9]: > 100 µM (inactive)
- GI50 [10]: > 100 µM (inactive)
- GI50 [11]: > 100 µM (inactive)
- GI50 [12]: > 100 µM (inactive)
- GI50 [13]: > 100 µM (inactive)
- GI50 [14]: > 100 µM (inactive)

Compound: O=C1C=CC(O)(C#CCO)C=C1
- GI50 [1]: 22.4 µM (inactive)
- GI50 [2]: 11.6 µM (inactive)
- GI50 [3]: 6.85 µM (inactive)
- GI50 [4]: 16 µM (inactive)
- GI50 [5]: 2.69 µM
- GI50 [6]: 19.5 µM (inactive)
- GI50 [7]: 12.4 µM (inactive)
- GI50 [8]: 8.57 µM (inactive)
- GI50 [15]: 21.2 µM (inactive)
- GI50 [9]: 6.73 µM (inactive)
- GI50 [10]: 16.9 µM (inactive)
- GI50 [11]: 24.3 µM (inactive)
- GI50 [12]: 21.3 µM (inactive)
- GI50 [13]: 15.2 µM (inactive)
- GI50 [14]: 13.5 µM (inactive)

Compound: O=C1OC2(C(F)(F)F)Oc3ccccc3CN2C12CCCCC2 (stereo not drawn)
- GI50 [1]: 53.8 µM (inactive)
- GI50 [2]: 25.1 µM (inactive)
- GI50 [3]: 18.7 µM (inactive)
- GI50 [4]: 32.3 µM (inactive)
- GI50 [5]: 28.2 µM
- GI50 [6]: 19.5 µM (inactive)
- GI50 [7]: 39.6 µM (inactive)
- GI50 [8]: 29.1 µM (inactive)
- GI50 [16]: 18 µM (inactive)
- GI50 [15]: 22.5 µM (inactive)
- GI50 [9]: 31.1 µM (inactive)
- GI50 [10]: 27.6 µM (inactive)
- GI50 [12]: 16 µM (inactive)
- GI50 [13]: 21.8 µM (inactive)
- GI50 [14]: 22.9 µM (inactive)

Compound: O=c1c2c(F)c(F)c(F)c(F)c2sc2nccn12
- GI50 [1]: 19.2 µM (inactive)
- GI50 [2]: 11.3 µM (inactive)
- GI50 [3]: 17.6 µM (inactive)
- GI50 [4]: 19.9 µM (inactive)
- GI50 [5]: 12.4 µM
- GI50 [6]: 17.6 µM (inactive)
- GI50 [7]: 14.9 µM (inactive)
- GI50 [8]: 14.4 µM (inactive)
- GI50 [16]: 17.3 µM (inactive)
- GI50 [15]: 11.2 µM (inactive)
- GI50 [9]: 26.8 µM (inactive)
- GI50 [10]: 18.4 µM (inactive)
- GI50 [11]: 18.5 µM (inactive)
- GI50 [12]: 22.5 µM (inactive)
- GI50 [13]: 0.745 µM (active)

Compound: CCOC(=O)c1c(-c2ccc(Br)cc2)ccn1C
- GI50 [1]: > 10 µM (inactive)
- GI50 [2]: > 10 µM (inactive)
- GI50 [3]: > 10 µM (inactive)
- GI50 [4]: > 10 µM (inactive)
- GI50 [5]: > 10 µM
- GI50 [6]: > 10 µM (inactive)
- GI50 [7]: > 10 µM (inactive)
- GI50 [8]: > 10 µM (inactive)
- GI50 [16]: > 10 µM (inactive)
- GI50 [15]: > 10 µM (inactive)
- GI50 [9]: > 10 µM (inactive)
- GI50 [10]: > 10 µM (inactive)
- GI50 [11]: > 10 µM (inactive)
- GI50 [12]: > 10 µM (inactive)
- GI50 [13]: > 10 µM (inactive)

Compound: CCCCCC[C@H]1C(=O)O[C@H](C)[C@H](NC(=O)c2cccc(NC=O)c2OC)C(=O)O[C@@H](C)[C@@H]1OC(=O)C(C)CC.CCCCCC[C@H]1C(=O)O[C@H](C)[C@H](NC(=O)c2cccc(NC=O)c2OC)C(=O)O[C@@H](C)[C@@H]1OC(=O)CC(C)C (stereo partly drawn)
- GI50 [1]: 12.4 µM (inactive)
- GI50 [2]: 6.08 µM (inactive)
- GI50 [3]: 7.62 µM (inactive)
- GI50 [4]: 15.7 µM (inactive)
- GI50 [5]: 14.7 µM
- GI50 [6]: 39.7 µM (inactive)
- GI50 [7]: 11.6 µM (inactive)
- GI50 [8]: 13.2 µM (inactive)
- GI50 [16]: > 100 µM (inactive)
- GI50 [15]: 4.83 µM (inactive)
- GI50 [9]: 7.59 µM (inactive)
- GI50 [10]: 6.28 µM (inactive)
- GI50 [11]: 5.15 µM (inactive)
- GI50 [13]: 20.8 µM (inactive)
- GI50 [14]: 46.8 µM (inactive)

Compound: CSC(=S)N/N=C(\C)c1ccc(S(=O)(=O)N(C)c2ccccc2)cc1
- GI50 [1]: 89.7 µM (inactive)
- GI50 [3]: 68.4 µM (inactive)
- GI50 [4]: > 100 µM (inactive)
- GI50 [5]: 34.2 µM
- GI50 [6]: 25.5 µM (inactive)
- GI50 [7]: 22.9 µM (inactive)
- GI50 [8]: 30.3 µM (inactive)
- GI50 [16]: 2.07 µM (inactive)
- GI50 [15]: 5.13 µM (inactive)
- GI50 [9]: 28.8 µM (inactive)
- GI50 [10]: 19.3 µM (inactive)
- GI50 [12]: 39.3 µM (inactive)
- GI50 [13]: 66.5 µM (inactive)
- GI50 [14]: 15.7 µM (inactive)
